Mutagenic call data for three molecules are collected here from PubChem BioAssay AID1259407 (Chemical Carcinogenesis Research Information System (CCRIS), 2018).

The series relates to CCRIS mutagenicity, Ames/micronucleus/aberration tests. Put plainly: CCRIS mutagenicity studies. The note with it: Test System: AMES SALMONELLA TYPHIMURIUM
Where [1] appears, read: Strain/Indicator: TA98, Metabolic Activation: NONE, Method: PREINCUBATION
Setting [2] is: Strain/Indicator: TA98, Metabolic Activation: NONE, Method: STANDARD PLATE.
Setting [3] is: Strain/Indicator: TA100, Metabolic Activation: NONE, Method: PREINCUBATION
Setting [4] is: Strain/Indicator: TA100, Metabolic Activation: NONE, Method: STANDARD PLATE.

Activity calls are given as the source filed them. The rule behind the calls is not given here.

Take `O=[N+]([O-])c1ccc(Oc2c(Cl)cc(Cl)cc2Cl)cc1`: the mutagenic call under setting [1] is “inactive; negative”; the mutagenic call under setting [2] is “inactive; negative”; the mutagenic call (Strain/Indicator: TA98, Metabolic Activation: RAT LIVER S-9 (10%), PHENOBARBITAL AND 5,6-BENZOFLAVONE, Method: PREINCUBATION) was “inactive; negative”; the mutagenic call (Strain/Indicator: TA98, Metabolic Activation: S-9, Method: STANDARD PLATE) was “inactive; negative”; the mutagenic call under setting [3] was “inactive; negative”; the mutagenic call under setting [4] was “inactive; negative”. Moreover, the mutagenic call runs as follows: (Strain/Indicator: TA100, Metabolic Activation: RAT LIVER S-9 (10%), PHENOBARBITAL AND 5,6-BENZOFLAVONE, Method: PREINCUBATION) “inactive; negative”; (Strain/Indicator: TA100, Metabolic Activation: S-9, Method: STANDARD PLATE) “inactive; negative”; (Strain/Indicator: YG1021, Metabolic Activation: NONE, Method: STANDARD PLATE) “inactive; negative”; (Strain/Indicator: YG1021, Metabolic Activation: RAT LIVER S-9 (10%), PHENOBARBITAL AND 5,6-BENZOFLAVONE, Method: PREINCUBATION) “inactive; negative”; (Strain/Indicator: YG1021, Metabolic Activation: RAT, LIVER, S-9, PCB, Method: PREINCUBATION) “active; positive”; (Strain/Indicator: YG1021, Metabolic Activation: S-9, Method: STANDARD PLATE) “inactive; negative”. Further, the mutagenic call was “active; positive” (Strain/Indicator: YG1024, Metabolic Activation: NONE, Method: PREINCUBATION); “inactive; negative” (Strain/Indicator: YG1024, Metabolic Activation: NONE, Method: STANDARD PLATE); “active; positive” (Strain/Indicator: YG1024, Metabolic Activation: RAT LIVER S-9 (10%), PHENOBARBITAL AND 5,6-BENZOFLAVONE, Method: PREINCUBATION); “active; positive” (Strain/Indicator: YG1024, Metabolic Activation: RAT, LIVER, S-9, PHENOBARBITAL AND 5,6-BENZOFLAVONE, Method: PREINCUBATION); “inactive; negative” (Strain/Indicator: YG1024, Metabolic Activation: S-9, Method: STANDARD PLATE); “inactive; negative” (Strain/Indicator: YG1026, Metabolic Activation: NONE, Method: STANDARD PLATE). Also, the mutagenic call by setting is: (Strain/Indicator: YG1026, Metabolic Activation: RAT LIVER S-9 (10%), PHENOBARBITAL AND 5,6-BENZOFLAVONE, Method: PREINCUBATION) “inactive; negative”; (Strain/Indicator: YG1026, Metabolic Activation: RAT, LIVER, S-9, PCB, Method: PREINCUBATION) “active; positive”; (Strain/Indicator: YG1026, Metabolic Activation: S-9, Method: STANDARD PLATE) “inactive; negative”; (Strain/Indicator: YG1029, Metabolic Activation: NONE, Method: PREINCUBATION) “inactive; negative”; (Strain/Indicator: YG1029, Metabolic Activation: NONE, Method: STANDARD PLATE) “active; positive”; (Strain/Indicator: YG1029, Metabolic Activation: RAT LIVER S-9 (10%), PHENOBARBITAL AND 5,6-BENZOFLAVONE, Method: PREINCUBATION) “active; positive”. For the same molecule, the mutagenic call runs as follows: (Strain/Indicator: YG1029, Metabolic Activation: RAT, LIVER, S-9, AROCLOR 1254, Method: STANDARD PLATE) “active; positive”; (Strain/Indicator: YG1029, Metabolic Activation: RAT, LIVER, S-9, PHENOBARBITAL AND 5,6-BENZOFLAVONE, Method: PREINCUBATION) “active; positive”; (Strain/Indicator: YG1029, Metabolic Activation: S-9, Method: STANDARD PLATE) “active; positive”.
On to `ClC(Cl)c1ccccc1`, for which the mutagenic call was “inactive; negative” (Strain/Indicator: TA98, Metabolic Activation: HAMSTER, LIVER, S-9, AROCLOR 1254 (30%), Method: PREINCUBATION); “active; positive” under setting [1]; “active; positive” (Strain/Indicator: TA98, Metabolic Activation: RAT, LIVER, S-9, AROCLOR 1254 (30%), Method: PREINCUBATION); “active; positive” (Strain/Indicator: TA100, Metabolic Activation: HAMSTER, LIVER, S-9, AROCLOR 1254 (30%), Method: PREINCUBATION); “active; positive” under setting [3]; “active; positive” (Strain/Indicator: TA100, Metabolic Activation: RAT, LIVER, S-9, AROCLOR 1254 (30%), Method: PREINCUBATION). Further, the mutagenic call (Strain/Indicator: TA100, Metabolic Activation: RAT, LIVER, S-9, AROCLOR 1254, Method: PREINCUBATION) is “active; positive”.
On to `O=[N+]([O-])O[C@@H]1CO[C@H]2[C@@H]1OC[C@@H]2O`, for which the mutagenic call by setting is: under setting [2], “inactive; negative”; (Strain/Indicator: TA98, Metabolic Activation: RAT, LIVER, S-9, AROCLOR 1254, Method: STANDARD PLATE) “inactive; negative”; under setting [4], “inactive; negative”; (Strain/Indicator: TA100, Metabolic Activation: RAT, LIVER, S-9, AROCLOR 1254, Method: STANDARD PLATE) “inactive; negative”; (Strain/Indicator: TA1535, Metabolic Activation: NONE, Method: STANDARD PLATE) “inactive; negative”; (Strain/Indicator: TA1535, Metabolic Activation: RAT, LIVER, S-9, AROCLOR 1254, Method: STANDARD PLATE) “inactive; negative”. Further, the mutagenic call (Strain/Indicator: TA1537, Metabolic Activation: NONE, Method: STANDARD PLATE) is “inactive; negative” and the mutagenic call (Strain/Indicator: TA1537, Metabolic Activation: RAT, LIVER, S-9, AROCLOR 1254, Method: STANDARD PLATE) was “inactive; negative”.
